Assays:
[1] = Size, polydispersity index and surface charge of mRNA-LNP (Malvern Zetasizer Nano ZS90); assay type: physicochemical; conditions: for PDI / size (nm) Number: mRNA-LNP made with the ionizable lipid at its optimal formulation (Table 2); for size (nm) Number: diluted with PBS to 1 μg/mL mRNA; for Zeta (mV): surface charge of mRNA-LNP made with the ionizable lipid at its optimal formulation (Table 2)
Protocol: Each mRNA-LNPs produced in Example 27 was diluted with PBS to a final mRNA concentration of 1 μg/mL. The size, polydispersity index (PDI), and surface charge of the mRNA-LNPs were then measured using a Malvern Zetasizer Nano ZS90 (Malvern Instruments, UK).
For particles intended for systemic administration, such as via blood vessels, the particle size must be less than 200 nm in order to pass through the endothelial capillaries of the liver. In addition, the size distribution is considered uniform only when the PDI is 0.3 or less, which enables consistent and efficient therapeutic effects (Non-patent document 3 [Danaei, M. et al). Pharmaceutics 2018, 10, 57]).

[2] = mRNA encapsulation efficiency (Quant-IT RiboGreen RNA assay); assay type: physicochemical; conditions: mRNA encapsulation efficiency of mRNA-LNP made with the ionizable lipid; average of two measurements
Protocol: The mRNA encapsulation efficiency (EE, %) of LNPs containing mRNA was measured using the Quant-IT™ RiboGreen® RNA assay kit (Invitrogen, USA).
The diluted samples were added to each well of a 96-well plate. Group A (without Triton X-100) was supplemented with 50 μL of 1×TE buffer, while Group B (with Triton X-100) was supplemented with 50 μL of 1×TE buffer containing 2% Triton-X 100. To release the encapsulated mRNA, the LNPs were treated with Triton-X 100 and incubated at 37° C. for 10 minutes. Subsequently, 100 μL of ribogreen reagent was added to each well. The fluorescence intensities of Group A and Group B were measured using a multi-plate reader (λex 480 nm, λem 520 nm), and mRNA encapsulation efficiency (%) was calculated using Equation 1 below. The encapsulation efficiency for each LNP was determined as the average of two independent measurements.

[3] = Stability of mRNA-LNPs according to storage temperature and duration; assay type: physicochemical; conditions: for Normalized EE % D-1 / Size (nm) D-1 / PDI D-1: day 1; for Normalized EE % D-7 / PDI D-7 / Size (nm) D-7: day 7; for Normalized EE % D-30 / PDI D-30 / Size (nm) D-30: day 30
Protocol: Stability of fLuc mRNA-LNPs produced using various ionizable lipids according to the method of Example 27, was assessed by storing the LNPs at 4° C. and 25° C. At 1, 7, and 30 days post-manufacture, the size, PDI, and encapsulation efficiency (EE) of each mRNA-LNPs samples were measured using the methods described in Experimental Examples 2 and 3.

female C57BL/6 mice = experiment: Protein expression efficiency of fLuc mRNA-LNPs after intramuscular injection (IVIS whole-body luminescence); assay type: in vivo; conditions: for Total flux 1 hour / Total flux 3 hours / Total flux 6 hours / Total flux 48 hours / Total flux 72 hours / Total flux: fLuc mRNA-LNP, intramuscular injection, luminescence at injection site, mice; for Total flux 1 hour: 1 hour after administration; for Total flux 3 hours: 3 hours after administration; for Total flux 6 hours: 6 hours after administration; for Total flux 48 hours: 48 hours after administration; for Total flux 72 hours: 72 hours after administration; for Total flux: after administration; for Fold increase in total flux at 3 h, MC3: relative to control LNP formulated with MC3; for Fold increase in total flux at 3 h, MC3 / Fold increase in total flux at 3 h, SM-102: 3 hours after intramuscular injection; for Fold increase in total flux at 3 h, SM-102: relative to control LNP formulated with SM-102
Protocol: fLuc mRNA-LNPs formulated using various ionizable lipids were prepared according to the method described in Example 27 and administered in vivo via intramuscular (I. M.) or intravenous (IV.) injection to compare the resulting protein expression efficiency in vivo. As a control, EGFP mRNA-LNPs formulated with commercially available ionizable lipids MC3 or SM-102 were used. All mRNA-LNPs were administered at equal mRNA doses per body weight across different concentration groups (n≥4).
Specifically, the dose of mRNA-LNPs was adjusted to 0.1-0.5 mg/kg of body weight, and the formulation was administered via I.M. or I.V. injection to female C57BL/6 mice (6-10 weeks old, Orient Bio, Korea) Subsequently, […], whole-body luminescence images were acquired using an in vivo imaging system (IVIS Lumina III, PerkinElmer, Walzam, MA, USA). To assess protein expression levels, 200 μL of D-luciferin (15 mg/mL) was administered via intraperitoneal (I.P.) injection 10 minutes prior to imaging. During image acquisition, the animals were anesthetized by inhalation of 3% isoflurane in 97% medical grade oxygen. In addition, the acquired luminescence images were quantitatively analyzed using imaging software (Living Image Software Version 4.4; PerkinElmer, USA).
After intramuscular injection of the fLuc mRNA-LNPs, the luminescence intensity at the injection site was measured over time.
Furthermore, the luminescence intensity at the injection site 3 hours after intramuscular injection was measured, and the relative protein expression efficiency was compared to that of control LNPs formulated with MC3 or SM-102.

SMILES | PDI [1] | size (nm) Number [1] | Zeta (mV) [1] | EE (%) [2] | Normalized EE % D-1 ([3]; fLuc mRNA-LNP stored at 4° C.) | Size (nm) D-1 ([3]; fLuc mRNA-LNP stored at 4° C.) | Normalized EE % D-7 ([3]; fLuc mRNA-LNP stored at 4° C.) | PDI D-7 ([3]; fLuc mRNA-LNP stored at 4° C.) | Size (nm) D-7 ([3]; fLuc mRNA-LNP stored at 4° C.) | Normalized EE % D-30 ([3]; fLuc mRNA-LNP stored at 4° C.) | PDI D-30 ([3]; fLuc mRNA-LNP stored at 4° C.) | Size (nm) D-30 ([3]; fLuc mRNA-LNP stored at 4° C.) | Normalized EE % D-1 ([3]; fLuc mRNA-LNP stored at 25° C.) | PDI D-1 ([3]; fLuc mRNA-LNP stored at 25° C.) | Size (nm) D-1 ([3]; fLuc mRNA-LNP stored at 25° C.) | Normalized EE % D-7 ([3]; fLuc mRNA-LNP stored at 25° C.) | PDI D-7 ([3]; fLuc mRNA-LNP stored at 25° C.) | Size (nm) D-7 ([3]; fLuc mRNA-LNP stored at 25° C.) | Normalized EE % D-30 ([3]; fLuc mRNA-LNP stored at 25° C.) | PDI D-30 ([3]; fLuc mRNA-LNP stored at 25° C.) | other results
CCCCCCCCCCCOC(=O)CCCCCN(CCCCCCCC(=O)OC(CCCCCCCC)CCCCCCCC)CC(O)CCCCNC(=O)c1cnc(O)n1C (stereo not shown) [Compound 40, Heptadecan-9-yl 8-((2-hydroxy-6-(2-hydroxy-1-methyl-1H-imidazole-5-carboxamido)hexyl)(6-oxo-6-(undecyloxy)hexyl)amino)octanoate] | 0.154 | 107 nm | −1.73 mV | 92% | 92.3% | 106.8 nm | 89.0% | 0.106 | 155.6 nm | 87.5% | 0.044 | 146.2 nm | 92.3% | 0.154 | 106.8 nm | 90.9% | 0.112 | 146.8 nm | 89.3% | 0.091 | Size (nm) D-30 ([3]; fLuc mRNA-LNP stored at 25° C.): 144.8 nm; Total flux 1 hour (female C57BL/6 mice): 7.92E+06; Total flux 3 hours (female C57BL/6 mice): 1.50E+07; Total flux 6 hours (female C57BL/6 mice): 6.60E+06; Total flux 48 hours (female C57BL/6 mice): 1.10E+06; Total flux 72 hours (female C57BL/6 mice): 8.29E+05; Total flux (female C57BL/6 mice): 6.46E+05; Fold increase in total flux at 3 h, MC3 (female C57BL/6 mice): 1.22; Fold increase in total flux at 3 h, SM-102 (female C57BL/6 mice): 0.13
CCCCCCCCCCCOC(=O)CCCCCN(CCCCCCCC(=O)OC(CCCCCCCC)CCCCCCCC)CC(O)CCCCNC(=O)c1c[nH]cn1 (stereo not shown) [Compound 34, Heptadecan-9-yl 8-((2-hydroxy-6-(1H-imidazole-4-carboxamido)hexyl)(6-oxo-6-(undecyloxy)hexyl)amino)octanoate] | 0.143 | 117 nm | −1.50 mV | 94% | 94.0% | 116.7 nm | 92.9% | 0.126 | 121.7 nm | 91.4% | 0.079 | 164.4 nm | 94.0% | 0.143 | 116.7 nm | 90.9% | 0.139 | 129.6 nm | 89.3% | 0.132 | Size (nm) D-30 ([3]; fLuc mRNA-LNP stored at 25° C.): 164.4 nm; Total flux 1 hour (female C57BL/6 mice): 6.37E+06; Total flux 3 hours (female C57BL/6 mice): 3.60E+07; Total flux 6 hours (female C57BL/6 mice): 1.70E+07; Total flux 48 hours (female C57BL/6 mice): 1.11E+06; Total flux 72 hours (female C57BL/6 mice): 7.64E+05; Total flux (female C57BL/6 mice): 2.79E+06; Fold increase in total flux at 3 h, MC3 (female C57BL/6 mice): 2.91; Fold increase in total flux at 3 h, SM-102 (female C57BL/6 mice): 0.32

— patent US20260184669A1, “LIPID COMPOUND AND COMPOSITION FOR DELIVERY OF ACTIVE SUBSTANCE” (KOREA RESEARCH INSTIUTE OF BIOSCIENCE AND BIOTECHNOLOGY, priority 2022, published 2026)
